The structures appear in SMILES notation. Positions of bridges follow the written chain, without caps; N, C: chain ends. Non-standard residues stand in square brackets, D forms with d. Residues, ends and D or L forms follow the SMILES beside them.

The nature of data set [1]: Stability against acid hydrolysis and trypsin. It is filed as in vitro ADME. As to conditions: 5 units trypsin for 2 hrs at 37° C. The procedure: For example, to prepare a peptide 3 derivative, peptide 3(3-12)[MCP-1] was modified according to Jameson et al. (Nature, 368, 744 (1994)), which yielded CRD-Cys13Leu4Ile11peptide 3(3-12)[MCP-1] (FIG. 3). CRD-Cys13Leu4Ile11peptide 3(3-12)[MCP-1], which had very similar properties to peptide 3(1-12)[MCP-1] […] CRD-Cys13Leu4Ile11peptide 3(3-12)[MCP-1] was also resistant to hydrolysis in vivo and allowed therapeutically useful plasma concentrations to be achieved (>10 μM 24 hours after a single intraperitoneal dose of 1 mg of CRD-Cys13Leu4Ile11peptide 3(3-12)[MCP-1] in 250 μL saline).

Data set [2] has as its system LPS- and MCP-1-induced dermal inflammation. The data set is described as follows: Rat dermal inflammation model (MCP-1 / LPS intradermal). Type of data set: in vivo. The procedure: To assess the efficacy of an agent of the invention in the prevention of lipopolysaccharide (LPS)- and MCP-1-induced dermal inflammation in the rat, three different doses of CRD-Leu4Ile11Cys13peptide 3(3-12)[MCP-1] were administered. An inflammatory response was elicited by intradermal injection (ventral abdomen) of either 500 ng MCP-1 or 100 ng MCP-1 along with endotoxin-free phosphate-buffered saline vehicle (as a negative control) and bacterial lipopolysaccharide (LPS; as a positive control). Each substance was injected at a different site. The results obtained from animals were compared to CRD-Leu4Ile11Cys13 peptide 3(3-12)[MCP-1] treated, and PBS (diluent control) treated, animals. […] The intradermal sites of agonist injection were collected, bisected and the extent of the inflammatory response was assessed by histopathology and quantitative immunofluorescence (fixed and frozen) (for example, following MCP-1 injection, the number of monocyte/macrophages in the skin was determined using the anti-CD14 (MCA342 from Serotec; clone ED2) at 3 μg/ml overnight at 4° C. The second antibody was rat anti-mouse FITC (415-096-100 from Jackson ImmunoResearch) at 28 μg/ml for 6 hours at room temperature). […]

Another data set addresses T1, ∂-opioid receptors (Homo sapiens, UniProt P41143).
T1 construct: purchased RBI/Sigma 0-116
Nature of the data set: Opioid receptor membrane binding (3H-Diprenorphine). The procedure:
For opioid receptor binding, membranes (0-116, RBI/Sigma) are diluted into binding buffer (75 mM Tris pH 7.4, 12.5 mM MgCl2 and 2 mM EDTA). For example, 10 μl of membranes are diluted in 500 μl of binding buffer (i.e., 1:50 dilution), which is aliquoted into labelled tubes. Cold competitor or test competitor is added (e.g. 5 μl of 100× stock solution; 5 μl of 100 μM naltrindole solution (N-115, RBI/Sigma in DMSO). Radioligand is then added (^3H-Diprenorphine, TRK 1060, Amersham, 250 μCi in 250 μl, 10.5 μM at 95 Ci/mmol). For competition studies, 0.5 nM is used. A 100× stock (i.e., […]) is made by diluting the commercial stock 1:210 in binding buffer, and 5 μl is added to every tube. Control tubes have radioligand but no membranes. The mixtures are vortexed, then spun very briefly. The mixtures are then incubated for 1 hour at 27° C. in a water bath. The mixture is filtered through GF/C filters over a vacuum. Each filter is pre-soaked in polyethyleneimine (0.3% in water; add 1 ml of 10% stock (P-261; RBI/Sigma) to 33 ml of MilliQ water). The tubes are washed with 2-3 ml of wash buffer (50 mM Tris pH 7.4) and the wash filtered. The filters are then rinsed with 3×5 ml of wash buffer, air dried, placed in a scintillation vial and 4.5 ml of scintillant added. The activity on the filter is then determined.

T1 sequence (P41143 whole entry): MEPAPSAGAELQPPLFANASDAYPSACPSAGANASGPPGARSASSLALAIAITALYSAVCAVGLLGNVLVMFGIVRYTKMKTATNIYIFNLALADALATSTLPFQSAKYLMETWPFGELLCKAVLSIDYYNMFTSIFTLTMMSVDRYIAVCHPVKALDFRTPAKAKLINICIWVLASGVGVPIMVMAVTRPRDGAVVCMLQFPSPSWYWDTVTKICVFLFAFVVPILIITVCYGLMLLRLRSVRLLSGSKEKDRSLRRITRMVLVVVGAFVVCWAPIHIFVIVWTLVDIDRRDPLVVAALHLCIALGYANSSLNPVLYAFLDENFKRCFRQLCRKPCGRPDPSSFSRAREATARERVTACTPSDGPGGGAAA

Usually EC50 stands for the concentration giving half of the maximal effect. A high value points to weaker potency. As for `CC[C@@H](C)[C@H]1NC(=O)[C@@H](CCC(N)=O)NC(=O)[C@H](N)CSSC[C@H](C(N)=O)NC(=O)[C@@H](CC(C)C)NC(=O)[C@@H](CC(=O)O)NC(=O)[C@H]2CCCN2C(=O)[C@@H](CCCCN)NC(=O)[C@@H](CCC(N)=O)NC(=O)[C@@H](CCCCN)NC(=O)[C@@H](Cc2c[nH]c3ccccc23)NC1=O` (H-[dC][dQ][dI][dW][dK][dQ][dK][dP][dD][dL][dC]-NH2; disulfide 1-11; N-terminus assumed), the “stability against enzymatic destruction” value in data set [1] is reported as “stable”. In addition, the “recruitment of B-cells to the site of the LPS injection” value in data set [2] (rat skin) is on record as “substantially inhibited”. The “MCP-1 induced recruitment of monocyte/macrophages in rat skin” value in data set [2] (systemic treatment 30 minutes before intradermal MCP-1) is on record as “completely abolished”. On ∂-opioid receptors, this compound showed a concentration for a half-maximal effect (EC50) above 100 µM.

Values taken from patent US7989466B2, “Methods to inhibit or augment an inflammatory response” (Cambridge Enterprise Limited, priority 1999, dated 2011).
